Values quoted from earlier work in patent US20080195230A1, “Pericardial tissue sheet” (priority 2007, published 2008).

How the values were obtained:
3T3 fibroblasts = conditions: in vitro
[1] = tested on: Chinese hamster ovary (CHO-K1) cells; conditions: in vitro
rabbit = conditions: i.v.

Row | Compound | cytotoxicity compared with glutaraldehyde (3T3 fibroblasts) | genotoxicity (clastogenic response) [1] | solubility in organic solvents (alcohol, acetic acid, acetone) | solubility in water (water) | LD50 (rabbit) [mg/kg]
1 | COC(=O)C1=CO[C@@H](O)[C@@H]2C(CO)=CC[C@H]12 [genipin] | substantially less cytotoxic than glutaraldehyde | does not cause clastogenic response |  |  | 
2 | Deoxycholic acid |  |  | soluble in alcohol and to a lesser extent acetone and glacial acetic acid | sparingly soluble in water | 15
